The values that follow come from patent US20110105496A1, “Methods For The Treatment Of Myosin Heavy Chain-Mediated Conditions Using 4,7-Dihydrothieno[2,3-B]Pyridine Compounds” (priority 2005, published 2011).

The test system of this test is alpha-MyHC. In words: alpha-MyHC cytoblot process in neonatal rat ventricular myocytes (NRVM). It is filed as cell-based.
The mark [1] stands for this setting: Table 1, NRVM, 72 hours, alpha-MyHC cytoblot, mean ± spread.
The mark [2] stands for this setting: Table 1, NRVM, 72 hours, maximum of dose response fit, low control = vehicle only.
The mark [3] stands for this setting: Table 2 (esters), NRVM, 72 hours, alpha-MyHC cytoblot.
Where [4] appears, read: Table 2 (esters), NRVM, 72 hours, maximum of dose response fit.

A word on the pEC50: it is the negative decadic logarithm of the EC50, by convention in mol/L. A lower pEC50 goes with a high EC50.

pEC50: −log10 of the molar value. Where two headings read alike, the source gives them in different places.

Compound `CCC(=O)C1=C(CC)Nc2sc(C(=O)c3ccccc3)c(N)c2C1c1ccccc1F` (centres unmarked) [Compound 78] gave a negative logarithm of the EC50 (pEC50) under setting [1] of 8.17. In addition, the “Max Plateau” value under setting [2] is on record as 269.77 ± 35.30 per cent fraction of low control.
Regarding `CCC1=C(C(=O)OC)C(c2ccccc2F)c2c(sc(C(=O)c3ccc(Cl)c(C)c3)c2N)N1` (centres unmarked) [Compound 150], under setting [3], the pEC50 is 7.67. In addition, the “Max Plateau” value under setting [4] is recorded as 228.28 per cent fraction of low control.
Take `CCC1=C(C(=O)OCCN)C(c2ccccc2F)c2c(sc(C(=O)c3ccc(Cl)c(Cl)c3)c2N)N1` (centres unmarked) [compound 221]: the pEC50 is 7.64 and the “Max Plateau” value came to 156.50 ± 9.76.
Under “Table 3 (amides), NRVM, 72 hours, alpha-MyHC cytoblot”, `CCNC(=O)C1=C(C)Nc2sc(C(=O)c3ccc(Cl)c(Cl)c3)c(N)c2C1c1ccccc1` (racemic) [Compound 195] gave a pEC50 of 3.47. Moreover, the “Max Plateau” value (Table 3 (amides), NRVM, 72 hours, maximum of dose response fit) was 126.67 ± 23.09 per cent fraction of low control.
As for `CC(=O)C1=C(C)Nc2sc(C(=O)c3ccccc3)c(N)c2C1C1CCCCC1` (centres unmarked) [Compound 26], under setting [1], the pEC50 is 6.03. The “Max Plateau” value under setting [2] is 185.33 ± 55.04 per cent fraction of low control.
For the compound `CCC1=C(C(=O)OC)C(c2cc(F)cc(F)c2)c2c(sc(C(=O)c3ccc(Cl)c(Cl)c3)c2N)N1` (centres unmarked) [Compound 171], under setting [3], the negative-log EC50 (pEC50) was 9.08. For the same compound, the “Max Plateau” value under setting [4] is reported as 296.79 per cent fraction of low control.
Compound `CCC(=O)C1=C(CC)Nc2sc(C(=O)c3ccc(Cl)c(Cl)c3)c(N)c2C1c1cccnc1` (centres unmarked) [Compound 75] had a pEC50 under setting [1] of 7.21. Moreover, the “Max Plateau” value under setting [2] is listed as 226.71 ± 40.80 per cent fraction of low control.
`CCC1=C(C(=O)OCCNC(=O)OC(C)(C)C)C(c2ccccc2F)c2c(sc(C(=O)c3ccc(Cl)c(Cl)c3)c2N)N1` (centres unmarked) [Compound 222, Bac protected 3-amino-2-(3,4 dichloro-benzoyl)-4-(2 fluoro-phenyl)-6-methyl-4,7 dihydro-thieno[2,3-b]pyridine-5-carboxylic acid 2-amino-ethyl ester]: the negative-log EC50 (pEC50) was 7.03 and the “Max Plateau” value stood at 128.75 ± 8.38.
Compound `CCC(=O)C1=C(CC)Nc2sc(C(=O)c3ccc(Cl)cc3Cl)c(N)c2C1c1ccccc1` (centres unmarked) [Compound 70] showed a pEC50 under setting [1] of 7.29. Also, the “Max Plateau” value under setting [2] is 191.97 ± 13.09 per cent fraction of low control.
For `CCC1=C(C(=O)OC)C(c2ccccc2F)c2c(sc(C(=O)c3cccc([N+](=O)[O-])c3)c2N)N1` (centres unmarked) [Compound 140], the pEC50 under setting [3] is 8.62. The “Max Plateau” value under setting [4] is given as 266.63 per cent fraction of low control.
On the same counts, the results for `CCOC(=O)C1=C(CC)Nc2sc(C(=O)c3ccc(F)c(CC(=O)OC)c3)c(N)c2C1c1ccccc1` (racemic) [Compound 194] are 6.61 and 188.67 per cent fraction of low control.
`CCC(=O)C1=C(CC)Nc2sc(C(=O)c3ccccc3)c(N)c2C1c1c(F)cccc1F` (centres unmarked) [Compound 69] gave a pEC50 under setting [1] of 7.50. Moreover, the “Max Plateau” value under setting [2] is given as 221.36 ± 15.94 per cent fraction of low control.
For `CCC(=O)C1=C(CC)Nc2sc(C(=O)c3cccc([N+](=O)[O-])c3)c(N)c2C1c1ccccc1` (centres unmarked) [Compound 96], in that order: 7.77 and 254.87 ± 72.67 per cent fraction of low control.
On the same counts, the results for `CC(=O)C1=C(C)Nc2sc(C(=O)c3cccc(Br)c3)c(N)c2C1c1ccccc1` (centres unmarked) [Compound 6] are 7.31 and 289.34 ± 70.69 per cent fraction of low control.
`CCC1=C(C(=O)OC)C(c2ccc(F)cc2F)c2c(sc(C(=O)c3ccc(Cl)c(Cl)c3)c2N)N1` (centres unmarked) [Compound 153] had a pEC50 under setting [3] of 7.82. Under setting [4], the “Max Plateau” value is reported as 234.66 per cent fraction of low control.
For `CCOC(=O)C1=C(C)Nc2sc(C(=O)c3ccc(Cl)c(Cl)c3)c(N)c2C1c1ccccc1` (centres unmarked) [Compound 113], in that order: 7.17 and 256.38 per cent fraction of low control.
Under setting [1], `CC(=O)C1=C(C)Nc2sc(C(=O)c3ccccn3)c(N)c2C1c1ccccc1` (centres unmarked) [Compound 16] gave a pEC50 of 5.37. For the same compound, the “Max Plateau” value under setting [2] was 163.33 ± 32.15 per cent fraction of low control.
As to `CCC(=O)C1=C(CC)Nc2sc(C(=O)c3cc(C(C)(C)C)c(O)c(C(C)(C)C)c3)c(N)c2C1c1ccccc1` (centres unmarked) [Compound 90], the “Max Plateau” value under setting [2] is given as 300.00 ± 0.00 per cent fraction of low control.
